The results in this text go back to patent publication US20210101874A1, “MICROBIOCIDAL OXADIAZOLE DERIVATIVES” (SYNGENTA PARTICIPATIONS AG, priority 2017, published 2021).

The test system of assay [1] is Glomerella lagenarium (Colletotrichum lagenarium). Kind of assay: Glomerella lagenarium (Colletotrichum lagenarium) liquid culture / cucumber / preventative (anthracnose). The conditions noted are these: Colletotrichum orbiculare; 20 ppm in the applied formulation; conidia in PDB nutrient broth, 24° C.; 3 to 4 days after application; compared to untreated; read-out: disease control (inhibition of growth measured photometrically). In kind it is cell-based. As to the method:
Mycelia fragments or conidia suspensions of a fungus prepared either freshly from liquid cultures of the fungus or from cryogenic storage, are directly mixed into nutrient broth. DMSO solutions of the test compound (max. 10 mg/ml) are diluted with 0.025% Tween20 by a factor of 50 and 10 µl of this solution is pipetted into a microtiter plate (96-well format). The nutrient broth containing the fungal spores/mycelia fragments is then added to give an end concentration of the tested compound. The test plates are incubated in the dark at 24° C. and 96% relative humidity. The inhibition of fungal growth is determined photometrically after 2 to 7 days, depending on the pathosystem, and percent antifungal activity relative to the untreated check is calculated. Conidia of the fungus from cryogenic storage are directly mixed into nutrient broth (PDB—potato dextrose broth). After placing a (DMSO) solution of test compound into a microtiter plate (96-well format), the nutrient broth containing the fungal spores is added. The test plates are incubated at 24° C. and the inhibition of growth is measured photometrically 3 to 4 days after application. The following compounds at 20 ppm in the applied formulation give at least 80% disease control in this test when compared to untreated control under the same conditions, which show extensive disease development.

In assay [2] the test system is Puccinia recondita f. sp. Tritici. Kind of assay: Puccinia recondita f. sp. tritici / wheat / leaf disc curative (brown rust). The conditions noted are these: foliar, 200 ppm in the applied formulation, wheat leaf segments cv. Kanzler, applied 1 day after inoculation, compared to untreated, assessed 6 to 8 days after application, read-out: disease control. In kind it is in vivo. Here is the method:
(§1) Leaf disks or leaf segments of various plant species are cut from plants grown in a greenhouse. The cut leaf disks or segments are placed in multiwell plates (24-well format) onto water agar. The leaf disks are sprayed with a test solution before (preventative) or after (curative) inoculation. Compounds to be tested are prepared as DMSO solutions (max. 10 mg/ml) which are diluted to the appropriate concentration with 0.025% Tween20 just before spraying. The inoculated leaf disks or segments are incubated under defined conditions (temperature, relative humidity, light, etc.) according to the respective test system. A single evaluation of disease level is carried out 3 to 14 days after inoculation, depending on the pathosystem. Percent disease control relative to the untreated check leaf disks or segments is then calculated.
Wheat leaf segments cv. Kanzler are placed on agar in multiwell plates (24-well format). The leaf segments are then inoculated with a spore suspension of the fungus. Plates were stored in darkness at 19° C. and 75% relative humidity. The formulated test compound diluted in water was applied 1 day after inoculation. The leaf segments were incubated at 19° C. and 75% relative humidity under a light regime of 12 hours light/12 hours darkness in a climate cabinet and the activity of a compound was assessed as percent disease control compared to untreated when an appropriate level of disease damage appears in untreated check leaf segments (6 to 8 days after application).
The following compounds at 200 ppm in the applied formulation give at least 80% disease control in this test when compared to untreated control leaf disks under the same conditions, which show extensive disease development.

For assay [3] the test system is unchanged. Kind of assay: Puccinia recondita f. sp. tritici / wheat / leaf disc preventative (brown rust). Format: in vivo. The conditions noted are these: foliar, 200 ppm in the applied formulation, wheat leaf segments cv. Kanzler, inoculated 1 day after application, compared to untreated, assessed 7 to 9 days after application, read-out: disease control. As to the method: as §1, with “calculated. Wheat leaf segments cv. Kanzler were placed on agar in multiwell plates (24-well format) and sprayed with the formulated test compound diluted in water. The leaf disks were inoculated with a spore suspension of the fungus 1 day after application. The inoculated leaf segments were incubated at 19° C. and 75% relative humidity (rh) under a light regime of 12 hours light/12 hours darkness in a climate cabinet and the activity of a compound was assessed as percent disease control compared to untreated when an appropriate level of disease damage appears in untreated check leaf segments (7 to 9 days after application). The following compounds at 200 ppm in the applied formulation give at least 80% disease control in this test when compared to untreated control leaf disks under the same conditions, which show extensive disease development.” for “calculated.”

For the compound `C#CCNS(=O)(=O)N(C)Cc1ccc(-c2noc(C(F)(F)F)n2)cc1` [Compound 1.19, 3-[4-[[methyl(prop-2-ynylsulfamoyl)amino]methyl]phenyl]-5-(trifluoromethyl)-1,2,4-oxadiazole], the inhibition (commonly how much of the control response was suppressed) at 20 ppm in assay [1] is not below 80%. In addition, the pest or weed control at 200 ppm in assay [2] and in assay [3] was not below 80% each time.
As for `C#CCNS(=O)(=O)N(Cc1ccc(-c2noc(C(F)(F)F)n2)cc1)C1CC1` [Compound 1.20, 3-[4-[[cyclopropyl(prop-2-ynylsulfamoyl)amino]methyl]phenyl]-5-(trifluoromethyl)-1,2,4-oxadiazole], in assay [1], the inhibition at 20 ppm is not below 80%. Further, the pest or weed control at 200 ppm in assay [2] is not below 80%.
Take `CCCS(=O)(=O)N(C)Cc1ccc(-c2noc(C(F)(F)F)n2)cc1` [Compound 1.25, N-methyl-N-[[4-[5-(trifluoromethyl)-1,2,4-oxadiazol-3-yl]phenyl]methyl] propane-1-sulfonamide]: the inhibition at 20 ppm in assay [1] was not below 80%. Further, the pest or weed control at 200 ppm in assay [2] and in assay [3] was not below 80% in each case.
With `CCN(Cc1ccc(-c2noc(C(F)(F)F)n2)cc1)S(=O)(=O)c1ccn(C)n1` [Compound 1.29, N-ethyl-1-methyl-N-[[4-[5-(trifluoromethyl)-1,2,4-oxadiazol-3-yl]phenyl]methyl] pyrazole-3-sulfonamide], the inhibition at 20 ppm in assay [1] was not below 80%. In addition, the pest or weed control at 200 ppm in assay [2] and in assay [3] was not below 80% throughout.
For the compound `CCN(Cc1ccc(-c2noc(C(F)(F)F)n2)cc1)S(=O)(=O)C1CC1` [Compound 1.33, N-ethyl-N-[[4-[5-(trifluoromethyl)-1,2,4-oxadiazol-3-yl]phenyl]methyl] cyclopropanesulfonamide], the inhibition at 20 ppm in assay [1] is not below 80%. For the same compound, the pest or weed control at 200 ppm in assay [2] and in assay [3] was not below 80% each time.
Regarding `C=CCS(=O)(=O)N(CCC)Cc1ccc(-c2noc(C(F)(F)F)n2)cc1` [Compound 1.70, N-propyl-N-[[4-[5-(trifluoromethyl)-1,2,4-oxadiazol-3-yl]phenyl]methyl] prop-2-ene-1-sulfonamide], in assay [1], the inhibition at 20 ppm was not below 80%. The pest or weed control at 200 ppm in assay [2] was not below 80%.
`CCCN(Cc1ccc(-c2noc(C(F)(F)F)n2)cc1)S(=O)(=O)N(C)C` [Compound 1.81, N-(dimethylsulfamoyl)-N-[[4-[5-(trifluoromethyl)-1,2,4-oxadiazol-3-yl]phenyl]methyl] propan-1-amine]: the inhibition at 20 ppm in assay [1] is not below 80%. Besides, the pest or weed control at 200 ppm in assay [2] was not below 80%.
Turning to `CON(Cc1ccc(-c2noc(C(F)(F)F)n2)cn1)S(=O)(=O)c1ccccc1` [Compound 1.111, N-methoxy-N-[[5-[5-(trifluoromethyl)-1,2,4-oxadiazol-3-yl]-2-pyridyl]methyl] benzenesulfonamide], the inhibition at 20 ppm in assay [1] is not below 80%. Besides, in assay [3], the pest or weed control at 200 ppm is not below 80%.
Turning to `C/C=C/S(=O)(=O)NCc1ccc(-c2noc(C(F)(F)F)n2)cc1` [Compound 2.10, (E)-N-[[4-[5-(trifluoromethyl)-1,2,4-oxadiazol-3-yl]phenyl]methyl] prop-1-ene-1-sulfonamide], the inhibition at 20 ppm in assay [1] was not below 80%. Besides, the pest or weed control at 200 ppm in assay [3] was not below 80%.
Regarding `CCCCS(=O)(=O)NCc1ccc(-c2noc(C(F)(F)F)n2)cc1` [Compound 2.12, N-[[4-[5-(trifluoromethyl)-1,2,4-oxadiazol-3-yl]phenyl]methyl] butane-1-sulfonamide], in assay [1], the inhibition at 20 ppm was not below 80%. In assay [3], the pest or weed control at 200 ppm was not below 80%.
`O=S(=O)(CCC(F)(F)F)NCc1ccc(-c2noc(C(F)(F)F)n2)c(F)c1` [Compound 2.18, 3,3,3-trifluoro-N-[[3-fluoro-4-[5-(trifluoromethyl)-1,2,4-oxadiazol-3-yl]phenyl]methyl] propane-1-sulfonamide]: in assay [1], the inhibition at 20 ppm was not below 80%. Moreover, the pest or weed control at 200 ppm in assay [3] is not below 80%.
Regarding `CC(C)S(=O)(=O)NCc1ccc(-c2noc(C(F)(F)F)n2)cc1F` [Compound 2.21, N-[[2-fluoro-4-[5-(trifluoromethyl)-1,2,4-oxadiazol-3-yl]phenyl]methyl] propane-2-sulfonamide], in assay [2], the pest or weed control at 200 ppm is not below 80%.
With `CCCCS(=O)(=O)NCc1ccc(-c2noc(C(F)(F)F)n2)c(F)c1` [Compound 2.22, N-[[3-fluoro-4-[5-(trifluoromethyl)-1,2,4-oxadiazol-3-yl]phenyl]methyl] butane-1-sulfonamide], in assay [1], the inhibition at 20 ppm is not below 80%. Also, the pest or weed control at 200 ppm in assay [3] is not below 80%.
For `COC(=O)CCS(=O)(=O)NCc1ccc(-c2noc(C(F)(F)F)n2)cc1F` [Compound 2.33, methyl 3-[[2-fluoro-4-[5-(trifluoromethyl)-1,2,4-oxadiazol-3-yl]phenyl]methyl-sulfamoyl] propanoate], in assay [1], the inhibition at 20 ppm was not below 80%. Moreover, the pest or weed control at 200 ppm in assay [3] was not below 80%.
`COC(=O)CS(=O)(=O)NCc1ccc(-c2noc(C(F)(F)F)n2)cc1F` [Compound 2.37, methyl 2-[[2-fluoro-4-[5-(trifluoromethyl)-1,2,4-oxadiazol-3-yl]phenyl]methyl-sulfamoyl] acetate]: the inhibition at 20 ppm in assay [1] was not below 80%. Moreover, in assay [3], the pest or weed control at 200 ppm was not below 80%.
As for `O=S(=O)(NCc1ccc(-c2noc(C(F)(F)F)n2)c(F)c1)c1ccccc1` [Compound 3.9, N-[[3-fluoro-4-[5-(trifluoromethyl)-1,2,4-oxadiazol-3-yl]phenyl]methyl] benzenesulfonamide], the inhibition at 20 ppm in assay [1] was not below 80%. Also, the pest or weed control at 200 ppm in assay [3] was not below 80%.
With `Cc1ccc(S(=O)(=O)NCc2ccc(-c3noc(C(F)(F)F)n3)cc2)s1` [Compound 3.11, 5-methyl-N-[[4-[5-(trifluoromethyl)-1,2,4-oxadiazol-3-yl]phenyl]methyl] thiophene-2-sulfonamide], in assay [1], the inhibition at 20 ppm is not below 80%. Moreover, in assay [3], the pest or weed control at 200 ppm was not below 80%.
Turning to `O=S(=O)(CC1CC1(Cl)Cl)NCc1ccc(-c2noc(C(F)(F)F)n2)cc1` (stereo not shown) [Compound 3.12, 1-(2,2-dichlorocyclopropyl)-N-[[4-[5-(trifluoromethyl)-1,2,4-oxadiazol-3-yl]phenyl]methyl] methanesulfonamide], the inhibition at 20 ppm in assay [1] was not below 80%. Also, in assay [3], the pest or weed control at 200 ppm was not below 80%.
For the compound `O=S(=O)(NCc1ccc(-c2noc(C(F)(F)F)n2)cc1)N1CCCC1` [Compound 3.13, N-[[4-[5-(trifluoromethyl)-1,2,4-oxadiazol-3-yl]phenyl]methyl] pyrrolidine-1-sulfonamide], the inhibition at 20 ppm in assay [1] is not below 80%. The pest or weed control at 200 ppm in assay [3] is not below 80%.
With `O=S(=O)(CC1CC1(Cl)Cl)NCc1ccc(-c2noc(C(F)(F)F)n2)c(F)c1` (stereo not shown) [Compound 3.16, 1-(2,2-dichlorocyclopropyl)-N-[[3-fluoro-4-[5-(trifluoromethyl)-1,2,4-oxadiazol-3-yl]phenyl]methyl] methanesulfonamide], the inhibition at 20 ppm in assay [1] was not below 80%. Moreover, the pest or weed control at 200 ppm in assay [3] is not below 80%.
